Columns and labels:
[1] = biological target: T1, human IKKβ (Homo sapiens, UniProt O14920); assay: IKKβ kinase inhibition assay (phosphorylation of IκBα substrate, 33P-ATP); assay type: biochemical; conditions: flag-tagged human IKKβ 0.9 μg/ml, GST-IκBα (1-54) 53 μg/ml, 250 nM ATP, 1 hour at 25° C.
T1 construct: FLAG (N)
T1 sequence (O14920 1-756): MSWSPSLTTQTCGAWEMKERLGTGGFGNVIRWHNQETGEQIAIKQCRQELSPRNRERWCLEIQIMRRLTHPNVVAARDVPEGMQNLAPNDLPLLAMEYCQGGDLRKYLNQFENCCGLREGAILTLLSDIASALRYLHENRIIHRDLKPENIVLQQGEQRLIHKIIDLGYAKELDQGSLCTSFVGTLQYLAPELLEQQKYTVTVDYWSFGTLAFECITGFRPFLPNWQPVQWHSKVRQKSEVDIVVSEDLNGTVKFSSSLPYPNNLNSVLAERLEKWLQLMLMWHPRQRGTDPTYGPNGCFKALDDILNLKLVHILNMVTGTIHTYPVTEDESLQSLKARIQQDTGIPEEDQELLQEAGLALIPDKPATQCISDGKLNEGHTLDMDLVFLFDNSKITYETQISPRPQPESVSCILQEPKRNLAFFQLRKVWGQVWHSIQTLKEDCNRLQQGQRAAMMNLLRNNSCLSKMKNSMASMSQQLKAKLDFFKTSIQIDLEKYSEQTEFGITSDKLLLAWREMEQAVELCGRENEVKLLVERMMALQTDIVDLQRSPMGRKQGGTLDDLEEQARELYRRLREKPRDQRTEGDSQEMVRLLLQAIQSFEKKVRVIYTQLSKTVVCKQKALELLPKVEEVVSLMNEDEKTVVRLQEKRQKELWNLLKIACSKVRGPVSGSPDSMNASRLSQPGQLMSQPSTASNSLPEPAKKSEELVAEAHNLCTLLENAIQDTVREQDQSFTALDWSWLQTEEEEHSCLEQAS
Experimental: (§1) The inhibition of IKKα and IKKβ by the compounds of the present invention was determined with the following assay that measures the phosphorylation of the IκBα substrate by the respective kinases. The enzymes used in the assay were N-terminally flag-tagged versions of the human IKKβ or IKKα and the substrate was a GST fusion protein with IκBα (amino acids 1-54).
(§2) The reaction mixtures (60 μl) contained 20 mM HEPES pH 7.5, 10 mM MgCl2, 2 mM MnCl2, 100 mM NaCl, 100 μM Na3VO4, 20 mM β-glycerophosphate, 1 mM DTT, 2% DMSO, 250 nM ATP, 0.4 nM [^33P]ATP (specific activity, 3000 Ci/mmol), IκBα substrate, IKK enzyme and test compound. The reaction mixtures contained either 3.6 μg/ml IKKα and 245 μg/ml IκBα or 0.9 μg/ml IKKβ and 53 μg/ml IκBα.
(§3) Reactions were initiated by adding a solution of IκBα substrate and ATP to polypropylene plates containing IKK enzyme that was pre-incubated for 5 minutes with test compound. Then the reaction mixtures were incubated for 1 hour at 25° C., placed on ice and quenched by the addition of 150 μl 10% trichloroacetic acid and 5% disodium pyrophosphate. After mixing, the entire contents of the quenched reaction mixtures were transferred to a pre-wetted Packard UniFilter filtration plate, aspirated and washed 6 times with 250 μl of ddH2O using the Packard Filtermate Harvester. Filtration plates were then air dried, supplemented with 40 μl of Microscint 20 scintillation fluid and the ^33P-labeled reaction products were quantified using the Packard TopCount scintillation counter.
(§4) Compounds were tested in three-fold serial dilutions and inhibitor concentrations to achieve 50% inhibition of enzyme activity (i.e., IC50) were derived from dose-reponse curves using SAS software (SAS Institute, Cary N.C.). A non-linear regression analysis based on the Hill equation was applied to the percent inhibition versus concentration data. In all cases, compound concentrations were verified by HPLC.

[2] = biological target: T2, human IKKα (Homo sapiens, UniProt O15111); assay: IKKα kinase inhibition assay (phosphorylation of IκBα substrate, 33P-ATP); assay type: biochemical; conditions: flag-tagged human IKKα 3.6 μg/ml, GST-IκBα (1-54) 245 μg/ml, 250 nM ATP, 1 hour at 25° C.
T2 construct: FLAG (N)
T2 sequence (O15111 1-745): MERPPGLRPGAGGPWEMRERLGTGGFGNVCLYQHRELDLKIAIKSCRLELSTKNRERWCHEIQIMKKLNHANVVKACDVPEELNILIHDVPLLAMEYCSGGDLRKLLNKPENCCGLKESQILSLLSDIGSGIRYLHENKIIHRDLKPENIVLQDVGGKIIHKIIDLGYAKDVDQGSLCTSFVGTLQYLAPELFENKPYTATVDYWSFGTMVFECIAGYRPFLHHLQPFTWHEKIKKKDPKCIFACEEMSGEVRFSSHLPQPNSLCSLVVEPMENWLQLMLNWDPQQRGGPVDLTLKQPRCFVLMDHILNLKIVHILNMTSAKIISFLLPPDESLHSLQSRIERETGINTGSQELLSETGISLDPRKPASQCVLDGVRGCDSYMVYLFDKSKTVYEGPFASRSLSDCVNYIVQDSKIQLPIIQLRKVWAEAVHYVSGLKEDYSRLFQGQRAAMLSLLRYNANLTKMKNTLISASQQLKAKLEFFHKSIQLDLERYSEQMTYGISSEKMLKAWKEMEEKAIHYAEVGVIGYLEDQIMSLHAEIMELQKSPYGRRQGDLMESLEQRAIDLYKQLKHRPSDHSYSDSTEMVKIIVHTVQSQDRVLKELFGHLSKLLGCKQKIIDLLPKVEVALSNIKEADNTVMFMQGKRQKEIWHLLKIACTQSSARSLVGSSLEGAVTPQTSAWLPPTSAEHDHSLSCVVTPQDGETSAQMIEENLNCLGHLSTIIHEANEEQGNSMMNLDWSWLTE
Experimental: as §1, §2, §3, §4

Structure (SMILES)	IC50 [1] [µM]	IC50 [2] [µM]
NC(=O)c1sc2nc(N3CCC(NCC(O)c4ccc(-c5cnccn5)cc4)CC3)cc(C(F)(F)F)c2c1N (stereo not shown) [3-Amino-6-{4-[2-hydroxy-2-(4-pyrazin-2-yl-phenyl)-ethylamino]-piperidin-1-yl}-4-trifluoromethyl-thieno[2,3-b]pyridine-2-carboxylic acid amide]	< 1	≤ 10
CNC1CCN(c2cc(C(F)F)c3c(N)c(C(N)=O)sc3n2)CC1 [3-Amino-4-difluoromethyl-6-(4-methylamino-piperidin-1-yl)-thieno[2,3-b]pyridine-2-carboxylic acid amide]	< 1	≤ 10
CCc1cc(N2CCC(N)CC2)nc2sc(C(N)=O)c(N)c12 [3-Amino-6-(4-amino-piperidin-1-yl)-4-ethyl-thieno[2,3-b] pyridine-2-carboxylic acid amide]	< 1	≤ 10
CNC1CCN(c2cc(SC)c3c(N)c(C(N)=O)sc3n2)CC1 [3-Amino-6-(4-methylamino-piperidin-1-yl)-4-methylsulfanyl-thieno[2,3-b]pyridine-2-carboxylic acid amide]	< 1	≤ 10
NC(=O)c1sc2nc(N3CCC(N)CC3)cc(C(=O)Nc3cccnc3)c2c1N [3-Amino-6-(4-amino-piperidin-1-yl)-thieno[2,3-b]pyridine-2,4-dicarboxylic acid 2-amide 4-pyridin-3-ylamide]	< 1	≤ 10
CCCc1cc(N2CCC(NCc3nnn[nH]3)CC2)nc2sc(C(N)=O)c(N)c12 [3-Amino-4-propyl-6-{4-[(1H-tetrazol-5-ylmethyl)-amino]-piperidin-1-yl}-thieno[2,3-b] pyridine-2-carboxylic acid amide]	< 1	≤ 10
NC(=O)c1sc2nc(N3CCC(N)CC3)cc(C(=O)Nc3ccncc3)c2c1N [3-Amino-6-(4-amino-piperidin-1-yl)-thieno[2,3-b]pyridine-2,4-dicarboxylic acid 2-amide 4-pyridin-4-ylamide]	< 1	≤ 10
NC(=O)c1sc2nc(N3CCC(N)CC3)cc(C(=O)Nc3ccccc3)c2c1N [3-Amino-6-(4-amino-piperidin-1-yl)-thieno[2,3-b]pyridine-2,4-dicarboxylic acid 2-amide 4-phenylamide]	< 1	≤ 10
CCCc1cc(N2CCC(NCC(O)c3ccc(-c4nccn4C)cc3)CC2)nc2sc(C(N)=O)c(N)c12 (stereo not shown) [3-Amino-6-(4-{2-hydroxy-2-[4-(1-methyl-1H-imidazol-2-yl)-phenyl]-ethylamino}-piperidin-1-yl)-4-propyl-thieno[2,3-b] pyridine-2-carboxylic acid amide]	< 1	≤ 10
CCCc1cc(N2CCC(NCC(O)c3ccc(-c4nccs4)cc3)CC2)nc2sc(C(N)=O)c(N)c12 (stereo not shown) [3-Amino-6-{4-[2-hydroxy-2-(4-thiazol-2-yl-phenyl)-ethylamino]-piperidin-1-yl}-4-propyl-thieno[2,3-b]pyridine-2-carboxylic acid amide]	< 1	≤ 10
NC(=O)c1sc2nc(N3CCC(N)CC3)cc(C(N)=O)c2c1N [3-Amino-6-(4-amino-piperidin-1-yl)-thieno[2,3-b]pyridine-2,4-dicarboxylic acid diamide]	< 1	≤ 10
NC(=O)c1sc2nc(N3CCC(N)CC3)cc(/C=C/c3ccncc3)c2c1N [3-Amino-6-(4-amino-piperidin-1-yl)-4-((E)-2-pyridin-4-yl-vinyl)-thieno[2,3-b]pyridine-2-carboxylic acid amide]	< 1	≤ 10
Cc1cc(/C=C/c2ccc(F)cc2)c2c(N)c(C(N)=O)sc2n1 [3-Amino-4-[(E)-2-(4-fluoro-phenyl)-vinyl]-6-methyl-thieno[2,3-b]pyridine-2-carboxylic acid amide]	–	≤ 10
CCCc1cc(N2CCC(N)(C#N)CC2)nc2sc(C(N)=O)c(N)c12 [3-Amino-6-(4-amino-4-cyano-piperidin-1-yl)-4-propyl-thieno[2,3-b] pyridine-2-carboxylic acid amide]	–	≤ 10
Cc1cc(-c2ccc([N+](=O)[O-])cc2)c2c(N)c(C(N)=O)sc2n1 [3-Amino-6-methyl-4-(4-nitro-phenyl)-thieno[2,3-b]pyridine-2-carboxylic acid amide]	–	≤ 10
NC(=O)c1sc2nc(N3CCC(N)CC3)cc(-c3ccc([N+](=O)[O-])cc3)c2c1N [3-Amino-6-(4-amino-piperidin-1-yl)-4-(4-nitro-phenyl)-thieno[2,3-b]pyridine-2-carboxylic acid amide]	–	≤ 10
NC(=O)c1sc2nc(N3CCC(N)CC3)cc(C(=O)NCCCN3CCOCC3)c2c1N [33-Amino-6-(4-amino-piperidin-1-yl)-thieno[2,3-b]pyridine-2,4-dicarboxylic acid 2-amide 4-[(3-morpholin-4-yl-propyl)-amide]]	–	≤ 10
CCCc1cc(N2CC[C@@H](N)C2)nc2sc(C(N)=O)c(N)c12 [3-Amino-6-((R)-3-amino-pyrrolidin-1-yl)-4-propyl-thieno[2,3-b] pyridine-2-carboxylic acid amide]	–	≤ 10
CCCc1cc(N2CCC(N)CC2)nc2sc(C(N)=O)c(N)c12 [3-Amino-6-(4-amino-piperidin-1-yl)-4-propyl-thieno[2,3-b] pyridine-2-carboxylic acid amide]	–	≤ 10
NC(=O)c1sc2nc(N3CCC(NCC(O)c4ccc(C(=O)NCc5ccccc5)cc4)CC3)cc(C(F)(F)F)c2c1N (stereo not shown) [3-Amino-6-{4-[2-(4-benzylcarbamoyl-phenyl)-2-hydroxy-ethylamino]-piperidin-1-yl}-4-trifluoromethyl-thieno[2,3-b]pyridine-2-carboxylic acid amide]	–	≤ 10
CCCc1cc(N2CCC(NC)CC2)nc2sc(C(N)=O)c(N)c12 [3-Amino-6-(4-methylamino-piperidin-1-yl)-4-propyl-thieno[2,3-b] pyridine-2-carboxylic acid amide]	–	≤ 10
Cc1cc(-c2ccc(S(C)(=O)=O)cc2)c2c(N)c(C(N)=O)sc2n1 [3-Amino-4-(4-methanesulfonyl-phenyl)-6-methyl-thieno[2,3-b]pyridine-2-carboxylic acid amide]	–	≤ 10
